{"source": "ChEMBL document CHEMBL4665731", "about": "“Antifungal trichothecene sesquiterpenes obtained from the culture broth of marine-derived Trichoderma cf. brevicompactum and their structure-activity relationship” (2020)", "format_in_all_cases": "functional", "key": {"[1]": {"system": "Candida albicans", "experiment": "Antifungal activity against Candida albicans NBRC1594 assessed as reduction in fungal growth incubated for 24 hrs by CLSI broth microdilution method"}, "[2]": {"system": "Cryptococcus neoformans", "experiment": "Antifungal activity against Cryptococcus neoformans ATCC 14116 assessed as reduction in fungal growth incubated for 72 hrs by CLSI broth microdilution method"}, "[3]": {"system": "Rhizopus arrhizus", "experiment": "Antifungal activity against Rhizopus oryzae NBRC 31005 assessed as reduction in fungal growth incubated for 24 hrs by CLSI broth microdilution method"}, "[4]": {"system": "Aspergillus fumigatus", "experiment": "Antifungal activity against Aspergillus fumigatus NBRC 96918 assessed as reduction in fungal growth incubated for 48 hrs by CLSI broth microdilution method"}}, "data": [{"smiles": "C[C@@H]1[C@H](O)[C@@H](C)/C=C/C=C/C=C/C=C/C=C/C=C/C=C/[C@H](O[C@@H]2O[C@H](C)[C@@H](O)[C@H](N)[C@@H]2O)C[C@@H]2O[C@](O)(C[C@@H](O)C[C@@H](O)[C@H](O)CC[C@@H](O)C[C@@H](O)CC(=O)O[C@H]1C)C[C@H](O)[C@H]2C(=O)O", "note": "[AMPHOTERICIN B]", "values": [{"measurement": "MIC90", "setting": "[1]", "value": 0.5, "unit": "µg/mL"}, {"measurement": "MIC90", "setting": "[2]", "value": 1, "unit": "µg/mL"}, {"measurement": "MIC90", "setting": "[3]", "value": 1, "unit": "µg/mL"}, {"measurement": "MIC90", "setting": "[4]", "value": 2, "unit": "µg/mL"}]}]}
